Experimental data: patent US9868746B2, “Substituted 5-aminothieno[2,3-C]pyridazine-6-carboxamide analogs as positive allosteric modulators of the muscarinic acetylcholine receptor M4” (Vanderbilt University, priority 2012, dated 2018)
Read-outs that look alike come from different tables or passages of the source.

Target: T1, mAChR M4 (Homo sapiens, UniProt P08173)
T1 construct: expressed in transfected cells; host or cells: CHO-K1 cells stably transfected with M4 cDNA and chimeric G-protein Gqi5
T1 sequence (P08173 1-479): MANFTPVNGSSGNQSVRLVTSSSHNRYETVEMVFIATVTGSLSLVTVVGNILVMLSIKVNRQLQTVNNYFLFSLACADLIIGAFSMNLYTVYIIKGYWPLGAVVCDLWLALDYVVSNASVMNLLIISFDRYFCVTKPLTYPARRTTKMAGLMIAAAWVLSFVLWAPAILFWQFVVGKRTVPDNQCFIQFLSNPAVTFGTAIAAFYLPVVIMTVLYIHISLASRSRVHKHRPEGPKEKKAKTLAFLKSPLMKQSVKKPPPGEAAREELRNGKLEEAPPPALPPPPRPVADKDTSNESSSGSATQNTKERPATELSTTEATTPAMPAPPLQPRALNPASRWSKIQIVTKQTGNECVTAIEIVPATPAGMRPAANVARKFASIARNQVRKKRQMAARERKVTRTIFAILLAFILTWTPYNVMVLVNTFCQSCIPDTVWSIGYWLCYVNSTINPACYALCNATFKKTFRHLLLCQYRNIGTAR
Assay: mAChR M4 cell-based functional assay (calcium mobilization, potentiation of EC20 acetylcholine response)

[1] = mAChR M4 cell-based functional assay, >10,000 estimated for low potency compounds without plateau, read-out: EC50

| SMILES | Emax at 30 µM (% ACh maximum at 30 μM) [%] | EC50 [1] [nM] | EC50 (EC50 (nM)) [nM] | Emax (%)* (% ACh maximum at 30 μM) [%] |
| --- | --- | --- | --- | --- |
| CCCCCC(=O)NC1CCN(C(=O)c2sc3nnc(C)c(C)c3c2N)C1 (stereo not drawn) [Example B218] | 61 | 5000 |  |  |
| COc1ccc(S(=O)(=O)C2CN(C(=O)c3sc4nnc(C)c(C)c4c3N)C2)cc1 [Example B417] | 46 | 750 |  |  |
| Cc1nnc2sc(C(=O)NCc3cnn(C)c3)c(N)c2c1C [Example B89] | 58 | 320 |  |  |
| Cc1nnc2sc(C(=O)NC3CN(C(=O)c4ccc(OC(F)(F)F)cc4)C3)c(N)c2c1C [Example B409] | 65 | 120 |  |  |
| Cc1nnc2sc(C(=O)N3CC(NCc4ccco4)C3)c(N)c2c1C [Example B64] | 41 | > 10000 |  |  |
| Cc1nnc2sc(C(=O)NCc3cccc(OC(F)(F)F)c3)c(N)c2c1C [Example B410] | 53 | 200 |  |  |
| Cc1nnc2sc(C(=O)NC3CN(C(=O)Oc4cccc(Cl)c4)C3)c(N)c2c1C [Example B359] | 55 | 16 |  |  |
| Cc1nnc2sc(C(=O)NC3CC3)c(N)c2c1C [Example B8] | 97 | 260 |  |  |
| Cc1nnc2sc(C(=O)N3CCC(NS(=O)(=O)CCCc4ccccc4)C3)c(N)c2c1C (stereo not drawn) [Example B234] | 50 | 810 |  |  |
| COc1cccc(SC2CN(C(=O)c3sc4nnc(C)c(C)c4c3N)C2)c1 [Example B418] | 56 | 160 |  |  |
| Nc1c(C(=O)NCc2ccc(S(=O)(=O)CF)cc2)sc2nnc3c(c12)CCCC3 [Example B428] | 51 | 88 |  |  |
| Cc1nnc2sc(C(=O)NCc3ccc(-n4cccn4)cc3)c(N)c2c1C [Example B506] | 70 | 150 |  |  |
| Cc1nnc2sc(C(=O)N3CCC(NS(=O)(=O)c4ccc(F)cc4)C3)c(N)c2c1C (stereo not drawn) [Example B223] | 61 | 2400 |  |  |
| Cc1nnc2sc(C(=O)NC3CCN(c4ccc(F)cc4)C3)c(N)c2c1C (stereo not drawn) [Example B346] | 79 | 170 |  |  |
| COc1ccc(CNC(=O)c2sc3nnc(C)c(C)c3c2N)c(F)c1 [Example B475] | 61 | 24 |  |  |
| Cc1nnc2sc(C(=O)NCc3cc(F)ccc3F)c(N)c2c1C [Example B5] | 86 | 180 |  |  |
| Cc1nnc2sc(C(=O)NCc3ccc(S(=O)(=O)C(F)F)c(F)c3)c(N)c2c1C [Example B468] | 85 | 16 |  |  |
| Cc1nnc2sc(C(=O)NCc3ccc(C#N)cc3)c(N)c2c1C [Example B431] | 56 | 120 |  |  |
| Cc1nnc2sc(C(=O)N[C@@H]3CCN(S(C)(=O)=O)C3)c(N)c2c1C [Example B77] | 53 | 3500 |  |  |
| Cc1nnc2sc(C(=O)N3CC4CN(C(=O)OC(C)(C)C)CC4C3)c(N)c2c1C (stereo not drawn) [Example B259] | 53 | 900 |  |  |
| Cc1nnc2sc(C(=O)NCc3ccc(N4CCCC4=O)cc3)c(N)c2c1C [Example B238] | 68 | 130 |  |  |

| SMILES | Emax at 30 µM (% ACh maximum at 30 μM) [%] | EC50 [1] [nM] | EC50 (EC50 (nM)) [nM] | Emax (%)* (% ACh maximum at 30 μM) [%] |
| --- | --- | --- | --- | --- |
| Cc1nnc2sc(C(=O)N3CC(S(=O)(=O)c4ccc(F)cc4F)C3)c(N)c2c1C [Example B432] | 40 | 820 |  |  |
| Cc1nnc2sc(C(=O)N3CCC(NC(=O)c4ccccc4)C3)c(N)c2c1C (stereo not drawn) [Example B246] | 78 | 4600 |  |  |
| Cc1nnc2sc(C(=O)NCc3ccc(-c4ccc5[nH]ncc5c4C)cc3)c(N)c2c1C [Example B473] | 61 | 89 |  |  |
| Cc1nnc2sc(C(=O)NC3CN(C(=O)Oc4cc(F)cc(F)c4)C3)c(N)c2c1C [Example B370] | 61 | 10 |  |  |
| Cc1nnc2sc(C(=O)NCc3ccc(CN(C)C)cc3)c(N)c2c1C [Example B328] | 73 | 130 |  |  |
| Cc1nnc2sc(C(=O)NCc3ccncn3)c(N)c2c1C [Example B17] | 83 | > 10000 |  |  |
| Cc1nnc2sc(C(=O)NC3(c4ccc(F)cc4)CC3)c(N)c2c1C [Example B390] | 46 | > 10000 |  |  |
| Cc1cncc(NC(=O)c2sc3nnc(C)c(C)c3c2N)c1 [Example B71] | 31 | 460 |  |  |
| Cc1nnc2sc(C(=O)N3CCC(NC(=O)c4cccc(F)c4)C3)c(N)c2c1C (stereo not drawn) [Example B216] | 62 | > 10000 |  |  |
| Cc1nnc2sc(C(=O)NCc3ccc(C(C)(O)C(F)(F)F)cc3)c(N)c2c1C (single isomer, unassigned) [Example B186] | 75 | 19 |  |  |
| Cc1nnc2sc(C(=O)NC3CN(C(=O)NCCCN4CCOCC4)C3)c(N)c2c1C [Example B337] | 55 | 600 |  |  |
| Cc1ccc(OC(=O)N2CC(NC(=O)c3sc4nnc(C)c(C)c4c3N)C2)cc1 [Example B342] | 67 | 9 |  |  |
| COCCOCCNC(=O)c1sc2nnc(C)c(C)c2c1N [Example B199] | 52 | > 10000 |  |  |
| COc1ccc(CNC(=O)c2sc3nnccc3c2N)cc1 [Example B2] | 61 | > 10000 |  |  |
| COc1ccc(CNC(=O)c2sc3nnc(C)c(C)c3c2N)cn1 [Example B288] | 71 | 150 |  |  |
| Cc1nnc2sc(C(=O)NC3CN(C(=O)c4cccc(F)c4)C3)c(N)c2c1C [Example B403] | 71 | 110 |  |  |
| CS(=O)(=O)c1ccc(CNC(=O)c2sc3nnc(Cl)cc3c2N)cc1 [Example B76] | 55 | 490 |  |  |
| Cc1nnc2sc(C(=O)NC34CC(C3)C4)c(N)c2c1C [Example B248] | 81 | 630 |  |  |
| Cc1nnc2sc(C(=O)NCCNC(=O)C3CC3)c(N)c2c1C [Example B367] | 52 | > 10000 |  |  |
| Cc1nnc2sc(C(=O)NCc3ccc(S(F)(F)(F)(F)F)cc3)c(N)c2c1C [Example B297] | 76 |  | 30 |  |
| Cc1nnc2sc(C(=O)N3CC(c4ccccc4)C3)c(N)c2c1C [Example B116] | 75 | 160 |  |  |

| SMILES | Emax at 30 µM (% ACh maximum at 30 μM) [%] | EC50 [1] [nM] | EC50 (EC50 (nM)) [nM] | Emax (%)* (% ACh maximum at 30 μM) [%] |
| --- | --- | --- | --- | --- |
| Cc1ccc(S(=O)(=O)N2CC(NC(=O)c3sc4nnc(C)c(C)c4c3N)C2)s1 [Example B98] | 66 | 63 |  |  |
| Cc1nnc2sc(C(=O)N3CC4CN(C(=O)CC5CCCCC5)CC4C3)c(N)c2c1C (stereo not drawn) [Example B386] | 44 | 820 |  |  |
| Cc1nnc2sc(C(=O)NC3CCN(C(=O)c4ccc(F)cc4F)C3)c(N)c2c1C (stereo not drawn) [Example B228] | 81 | 350 |  |  |
| Cc1nnc2sc(C(=O)NC3CN(C(=O)Nc4ccc(F)cc4)C3)c(N)c2c1C [Example B351] | 57 | 32 |  |  |
| Cc1nnc2sc(C(=O)NCc3ccc(-c4ccc5occc5c4)cc3)c(N)c2c1C [Example B463] | 70 | 150 |  |  |
| Cc1nnc2sc(C(=O)NC3CN(S(=O)(=O)c4ccccc4F)C3)c(N)c2c1C [Example B140] | 72 | 43 |  |  |
| Nc1c(C(=O)NCc2ccccc2)sc2nnc3c(c12)CCCC3 [Example B51] | 51 | 130 |  |  |
| CC(=O)NC1CN(C(=O)c2sc3nnc(C)c(C)c3c2N)C1 [Example B157] | 32 | > 10000 |  |  |
| Cc1nnc2sc(C(=O)NCc3ccc(-c4cc(C)c5[nH]ncc5c4)cc3)c(N)c2c1C [Example B474] | 82 | 460 |  |  |
| Cc1nnc2sc(C(=O)NC3CCCC3)c(N)c2c1C [Example B87] | 57 | 280 |  |  |
| Cc1nnc2sc(C(=O)NC3CCN(C(=O)OCc4ccccc4)C3)c(N)c2c1C (stereo not drawn) [Example B206] | 64 | 31 |  |  |
| Cc1nnc2sc(C(=O)N[C@H]3C[C@@H]3c3ccc(S(C)(=O)=O)cc3)c(N)c2c1C (single isomer, unassigned) [Example B110] | 62 | 18 |  |  |
| Cc1nnc2sc(C(=O)NC3CN(C(=O)Nc4ccccc4)C3)c(N)c2c1C [Example B362] | 64 | 18 |  |  |
| Cc1nnc2sc(C(=O)N3CCc4nn(C)cc4C3)c(N)c2c1C [Example B380] | 34 | > 10000 |  |  |
| COc1ccc(CNC2CN(C(=O)c3sc4nnc(C)c(C)c4c3N)C2)cc1 [Example B61] | 55 | 4600 |  |  |
| Cc1nnc2sc(C(=O)N3CC(Sc4ccccc4)C3)c(N)c2c1C [Example B405] | 46 | 92 |  |  |
| Cc1nnc2sc(C(=O)NCc3ccc(C(C)(O)C(F)(F)F)cc3)c(N)c2c1C (single isomer, unassigned) [Example B187] |  | 20 |  | 84 |
| COc1ccc(CNC(=O)c2sc3nnc(C)c(C)c3c2N)cc1Cl [Example B446] | 59 | 17 |  |  |
| Cc1nnc2sc(C(=O)N3CC(N=[N+]=[N-])(c4ccccc4)C3)c(N)c2c1C [Example B311] | 43 | 180 |  |  |
| Cc1nnc2sc(C(=O)NCC(C)(C)O)c(N)c2c1C [Example B25] | 56 | > 10000 |  |  |
| Cc1nnc2sc(C(=O)NC3CN(C(=O)c4ccccc4F)C3)c(N)c2c1C [Example B396] | 70 | 200 |  |  |
